Our source for the IC50 values is ChEMBL document CHEMBL5726069, “1-(3-aminopropyl) substituted cyclic amine compounds, preparation method therefor, and pharmaceutical compositions and uses thereof” (2019).

In this test the target is C-C chemokine receptor type 5 (Homo sapiens, UniProt P51681). Kind of test: Calcium Flux Inhibition Experiment: 1. HEK293 cells which can stably express CCR5 were inoculated in a 96-well plate and incubated overnight.2. The medium in each well into which cells were innoculated was removed and 40 μl/well of freshly prepared dye was added. The plate was placed in a 37° C. incubator and incubated for 40 minutes at constant temperature.3. The medicament to be determined was diluted with calcium buffer to eight concentration gradients, which is 1×10−4 M, 1×10−5 M, 1×10−6 M, 1×10−7 M, 1×10−8 M, 1×10−9 M, 1×10−10 M, and 1×10−11 M, respectively, and homogeneously mixed.4. The dye was removed. Freshly prepared calcium buffer was used to wash for one time, 50 μl of calcium buffer was added.5. FlexStation II was used for detection. 25 μl of calcium buffer containing the medicament to be determined was added automatically from the 15th second. The fluorescence value at 525 nm was read ultimately. The test is classed as cell-based.
Sequence of C-C chemokine receptor type 5 (P51681 whole entry): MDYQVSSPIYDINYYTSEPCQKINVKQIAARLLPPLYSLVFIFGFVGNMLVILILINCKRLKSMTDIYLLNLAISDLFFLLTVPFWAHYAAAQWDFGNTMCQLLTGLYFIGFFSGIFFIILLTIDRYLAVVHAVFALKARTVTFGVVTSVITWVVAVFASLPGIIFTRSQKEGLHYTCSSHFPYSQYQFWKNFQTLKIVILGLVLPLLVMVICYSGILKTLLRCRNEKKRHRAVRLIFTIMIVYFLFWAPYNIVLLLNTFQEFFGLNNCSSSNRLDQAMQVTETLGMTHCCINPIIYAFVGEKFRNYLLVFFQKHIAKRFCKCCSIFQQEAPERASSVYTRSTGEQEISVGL
By IC50 is commonly meant the concentration that gives 50% inhibition. With `CNC(=O)c1ccc([C@H](CCN2C3CCC2CC(n2c(C)nnc2C(C)C)C3)NC(=O)C2CCC(F)(F)CC2)s1` (stereo partly drawn), the concentration for half-maximal inhibition (IC50) is 13.7 nM.

`Cc1nnc(C(C)C)n1C1CC2CCC(C1)N2CCC(NC(=O)C1CCC(F)(F)CC1)c1cccs1` (stereo not drawn): the IC50 is 1.95 nM.

With `Cc1nnc(C(C)C)n1C1CC2CCC(C1)N2CC[C@H](NC(=O)C1CCCCC1)c1ccc(C(=O)N(C)C)s1` (stereo partly drawn), the 50% inhibitory concentration (IC50) was 1.64 nM.

Take `Cc1nnc(C(C)C)n1C1CC2CCC(C1)N2CC[C@H](NC(=O)C1CCC(F)(F)CC1)c1ccc(Cl)s1` (stereo partly drawn): the IC50 came out at 10.4 nM.

As to `Cc1nnc(C(C)C)n1C1CC2CCC(C1)N2CC[C@H](NC(=O)C1CCC(F)(F)CC1)c1ccc(F)s1` (stereo partly drawn), the concentration for half-maximal inhibition (IC50) was 9.33 nM.

With `Cc1nnc(C(C)C)n1C1CC2CCC(C1)N2CC[C@H](NC(=O)C1CCC(F)(F)CC1)c1ccc(C#N)s1` (stereo partly drawn), the IC50 came out at 9.45 nM.

As to `Cc1nnc(C(C)C)n1C1CC2CCC(C1)N2CC[C@H](NC(=O)C1CCC(F)(F)CC1)c1csc2ccccc12` (stereo partly drawn), the half-inhibitory concentration (IC50) is 11.4 nM.

With `CC(=O)Oc1ccc([C@H](CCN2C3CCC2CC(n2c(C)nnc2C(C)C)C3)NC(=O)C2CCCCC2)s1` (stereo partly drawn), the 50% inhibitory concentration (IC50) was found to be 1.38 nM.

`CCc1ccc([C@H](CCN2C3CCC2CC(n2c(C)nnc2C(C)C)C3)NC(=O)C2CCC(F)(F)CC2)s1` (stereo partly drawn): the IC50 is 4.63 nM.

For the compound `Cc1ccc([C@H](CCN2C3CCC2CC(n2c(C)nnc2C(C)C)C3)NC(=O)CC#N)s1` (stereo partly drawn), the IC50 turned out to be 8.29 nM.

For the compound `Cc1ccc([C@H](CCN2C3CCC2CC(n2c(C)nnc2C(C)C)C3)NC(=O)C2CCC(F)(F)CC2)s1` (stereo partly drawn), the IC50 was 7.28 nM.

Regarding `CC(=O)Nc1ccc([C@H](CCN2C3CCC2CC(n2c(C)nnc2C(C)C)C3)NC(=O)C2CCC(F)(F)CC2)s1` (stereo partly drawn), the IC50 turned out to be 8.23 nM.

For `Cc1nnc(C(C)C)n1C1CC2CCC(C1)N2CC[C@H](NC(=O)C1CCC(F)(F)CC1)c1nccs1` (stereo partly drawn), the IC50 was 10.3 nM.
